Values quoted from earlier work, collected in PMC3237771 (Biomacromolecules, 2011).

Details: aqueous buffer; no reference given

Half-life in aqueous environments: < 10 h
Compound: N=c1c[n+](N2CCOCC2)[n-]o1 [SIN-1, 3-morpholinosydnonimine]
